Assay results from the supplement of paper PMC10331698.
± gives the standard deviation of the averaged measurements.

Compound: O=C(O)C(F)(F)C(F)(F)C(F)(F)C(F)(F)C(=O)O [Octafluoroadipic acid] (in DMSO)
Assay: level (log10 ratio to DMSO vehicle control); higher = higher biomarker level / cell amount than vehicle control
Method: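 BioMAP Diversity Plus panel of 12 human primary cell co-culture systems (3C, 4H, LPS, SAg, BT, BF4T, BE3C, CASM3C, HDF3CGF, KF3CT, MyoF, Mphg). Compounds were added 1 h before stimulation and left for 24 h (MyoF 48 h; BT 72 h for soluble read-outs or 6 d for IgG). Biomarkers were read by ELISA, cytotoxicity by SRB, PBMC viability and proliferation by Alamar Blue. Each well value was divided by the mean of 8 DMSO control wells on the same plate and log10 transformed; duplicate blinded samples were tested at 4 concentrations.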

Test System	level (log10) (6700 nM)	level (log10) (20000 nM)	level (log10) (60000 nM)
3C:CCL2/MCP-1	-0.0115 ± 0.0064	-0.0105 ± 0.011	0.0135 ± 0.036
3C:CD54/ICAM-1	-0.007 ± 0.014	-0.0075 ± 0.018	-0.0065 ± 0.013
3C:CD62E/E-Selectin	-0.029 ± 0.0071	-0.004 ± 0.016	-0.0205 ± 0.0078
3C:CD106/VCAM-1	0.0005 ± 0.019	-0.0015 ± 0.0092	0.0055 ± 0.00071
3C:CD141/Thrombomodulin	0.0125 ± 0.025	0.016 ± 0.03	0.0195 ± 0.05
3C:CD142/Tissue Factor	0.02 ± 0.061	0.0375 ± 0.067	0.0085 ± 0.061
BE3C:Keratin 8/18	-0.0095 ± 0.0078	-0.0105 ± 0.025	0.0095 ± 0.0021
BE3C:MMP-1	-0.0145 ± 0.025	-0.0205 ± 0.037	0.0155 ± 0.0021
BE3C:MMP-9	-0.0065 ± 0.022	-0.002 ± 0.016	0.0065 ± 0.0064
BE3C:PAI-I	-0.0025 ± 0.005	0.0015 ± 0.0035	0.0025 ± 0.0035
BE3C:SRB	0.0035 ± 0.005	0.0005 ± 0.0035	-0.0035 ± 0.0092
BE3C:tPA	-0.003 ± 0.0028	0.004 ± 0.0099	0.0015 ± 0.0064
BE3C:uPA	-0.002 ± 0.02	-0.0135 ± 0.005	-0.0005 ± 0.0021
CASM3C:CCL2/MCP-1	-0.0085 ± 0.0092	-0.0065 ± 0.011	0.015 ± 0.038
CASM3C:CD87/uPAR	-0.012 ± 0.0057	-0.014 ± 0.0085	-0.0015 ± 0.0064
CASM3C:CD106/VCAM-1	-0.0055 ± 0.011	-0.011 ± 0.013	-0.019
CASM3C:CD141/Thrombomodulin	0.0115 ± 0.0021	0.0105 ± 0.021	0.0065 ± 0.022
CASM3C:CD142/Tissue Factor	-0.011 ± 0.0071	-0.0045 ± 0.0092	-0.0145 ± 0.00071
CASM3C:CXCL8/IL-8	-0.0005 ± 0.0092	-0.002 ± 0.0071	0.0045 ± 0.022
CASM3C:CXCL9/MIG	-0.0055 ± 0.0078	-0.01 ± 0.0071	0.001 ± 0.021
CASM3C:HLA-DR	-0.0035 ± 0.019	-0.0095 ± 0.032	-0.0025 ± 0.0078
CASM3C:IL-6	-0.0225 ± 0.0092	-0.0115 ± 0.0064	0.013 ± 0.061
CASM3C:LDLR	-0.0215 ± 0.023	-0.008 ± 0.018	0.029 ± 0.047
CASM3C:M-CSF	-0.039 ± 0.02	-0.024 ± 0.042	0.0155 ± 0.1
CASM3C:PAI-I	0.001 ± 0.0057	-0.0015 ± 0.00071	0.002 ± 0.013
CASM3C:Proliferation	-0.066 ± 0.0071	-0.004 ± 0.073	0.014 ± 0.051

Test System	level (log10) (6700 nM)	level (log10) (20000 nM)	level (log10) (60000 nM)
CASM3C:SRB	-0.006 ± 0.0057	-0.0025 ± 0.005	-0.006 ± 0.0057
CASM3C:Serum Amyloid A	-0.032 ± 0.037	-0.0515 ± 0.011	0.0105 ± 0.005
HDF3CGF:CCL2/MCP-1	-0.0025 ± 0.052	0.0075 ± 0.036	0 ± 0.033
HDF3CGF:CD54/ICAM-1	0.004	0.004 ± 0.0099	0.0005 ± 0.016
HDF3CGF:CD106/VCAM-1	-0.001 ± 0.0071	-0.016 ± 0.016	-0.03 ± 0.04
HDF3CGF:CXCL8/IL-8	-0.0005 ± 0.0078	0.003 ± 0.0014	0.0065 ± 0.0092
HDF3CGF:CXCL9/MIG	0.009 ± 0.0028	0.007 ± 0.018	-0.0055 ± 0.015
HDF3CGF:CXCL10/IP-10	0 ± 0.0057	-0.005 ± 0.0028	0.001 ± 0.0085
HDF3CGF:CXCL11/I-TAC	-0.008 ± 0.018	-0.005 ± 0.0085	-0.002 ± 0.0042
HDF3CGF:Collagen I	-0.008 ± 0.059	-0.011 ± 0.024	0.042 ± 0.021
HDF3CGF:Collagen III	-0.0085 ± 0.0064	0.0005 ± 0.018	0.0005 ± 0.0035
HDF3CGF:EGFR	0.0135 ± 0.0078	0.032 ± 0.048	0.032 ± 0.075
HDF3CGF:M-CSF	-0.0095 ± 0.005	-0.01 ± 0.0085	0.0255 ± 0.036
HDF3CGF:MMP-1	-0.0115 ± 0.0078	0.0025 ± 0.0035	0.0015 ± 0.0064
HDF3CGF:PAI-I	-0.008 ± 0.017	-0.017 ± 0.0071	0.0115 ± 0.037
HDF3CGF:Proliferation 72hr	-0.036 ± 0.0042	0.024 ± 0.047	0.013 ± 0.017
HDF3CGF:SRB	-0.033 ± 0.023	0.0135 ± 0.037	-0.0005 ± 0.042
HDF3CGF:TIMP-1	-0.0055 ± 0.03	0.022 ± 0.059	0.023 ± 0.055
HDF3CGF:TIMP-2	0.007 ± 0.0085	0.02 ± 0.023	0.0055 ± 0.0078
KF3CT:CCL2/MCP-1	-0.0165 ± 0.043	-0.0265 ± 0.00071	0.0285 ± 0.026
KF3CT:CD54/ICAM-1	-0.0045 ± 0.0035	-0.0105 ± 0.0078	-0.009 ± 0.018
KF3CT:CXCL8/IL-8	-0.0015 ± 0.015	0.0105 ± 0.0092	0.012 ± 0.017
KF3CT:CXCL9/MIG	0.003 ± 0.014	0.0075 ± 0.016	0.0155 ± 0.0021
KF3CT:CXCL10/IP-10	0 ± 0.0028	-0.001 ± 0.0028	-0.001 ± 0.014
KF3CT:IL-1alpha	-0.005 ± 0.013	-0.0245 ± 0.011	0.004 ± 0.02
KF3CT:MMP-9	-0.0065 ± 0.005	0.0085 ± 0.015	0.0175 ± 0.015

Test System	level (log10) (6700 nM)	level (log10) (20000 nM)	level (log10) (60000 nM)
KF3CT:PAI-I	-0.0135 ± 0.0092	-0.0135 ± 0.011	-0.002 ± 0.017
KF3CT:SRB	-0.0065 ± 0.005	0.003 ± 0.013	0.001 ± 0.018
KF3CT:TIMP-2	-0.001 ± 0.025	-0.0015 ± 0.005	0.0105 ± 0.0092
KF3CT:uPA	-0.0045 ± 0.039	-0.0065 ± 0.028	-0.0055 ± 0.026
MyoF:CD106/VCAM-1	-0.0235 ± 0.005	-0.0255 ± 0.022	-0.0085 ± 0.016
MyoF:CXCL8/IL-8	-0.0025 ± 0.00071	0.002 ± 0.041	0.0235 ± 0.046
MyoF:Collagen I	-0.0165 ± 0.018	-0.021 ± 0.021	-0.005 ± 0.0042
MyoF:Collagen III	-0.002 ± 0.021	-0.0085 ± 0.028	-0.0015 ± 0.035
MyoF:Collagen IV	-0.0175 ± 0.0064	-0.016 ± 0.016	0.002 ± 0.021
MyoF:Decorin	0.0005 ± 0.011	-0.0055 ± 0.019	-0.001 ± 0.013
MyoF:MMP-1	-0.013 ± 0.025	-0.0175 ± 0.0035	0.0125 ± 0.03
MyoF:PAI-I	-0.012 ± 0.0099	-0.01 ± 0.017	0.001 ± 0.0085
MyoF:SRB	-0.0105 ± 0.0064	-0.005 ± 0.013	-0.0015 ± 0.00071
MyoF:TIMP-1	-0.0155 ± 0.026	-0.02 ± 0.025	-0.0485 ± 0.019
MyoF:alpha-SM Actin	0.007 ± 0.044	-0.0105 ± 0.052	0.007 ± 0.033
MyoF:bFGF	-0.0035 ± 0.00071	0.002 ± 0.0057	0.0055 ± 0.0092
lMphg:CCL2/MCP-1	0.0135 ± 0.013	-0.008 ± 0.016	0.028 ± 0.059
lMphg:CCL3/MIP-1alpha	-0.035 ± 0.024	-0.0045 ± 0.023	0.002 ± 0.018
lMphg:CD40	-0.0065 ± 0.0021	-0.0015 ± 0.0021	-0.025 ± 0.048
lMphg:CD62E/E-Selectin	-0.0025 ± 0.036	-0.0275 ± 0.057	-0.028 ± 0.064
lMphg:CD69	0.0095 ± 0.037	0.0035 ± 0.081	-0.008 ± 0.054
lMphg:CD106/VCAM-1	-0.007 ± 0.02	0.0065 ± 0.011	0.0055 ± 0.005
lMphg:CXCL8/IL-8	0.009 ± 0.0099	-0.0015 ± 0.028	0.0495 ± 0.091
lMphg:IL-1alpha	-0.0495 ± 0.013	-0.041 ± 0.027	0.039 ± 0.031
lMphg:M-CSF	-0.012 ± 0.0071	-0.0255 ± 0.0035	-0.006 ± 0.017
